In patent US20090304694A1, “Ang2 and Vegf Inhibitor Combinations” (AMGEN INC., priority 2006, published 2009):

System: Colo205 colorectal cancer cell xenografts
Experiment: Colo205 xenograft tumor volume, 2xCon4(C) (2.8 μg) and Avastin™ (10 μg) (Example 7)
Type: in vivo, female athymic nude mice (CD1 Nu/Nu)
Conditions: Avastin™ 10 μg IP twice per week; 2xCon4(C) 2.8 μg sc twice per week; day 14 to day 42
Experimental: Xenografts of Colo205 cells injected into female athymic nude mice were treated with 2xCon4(C) alone, Avastin™, or a combination of the two as described below.
Tumors were induced by injecting Colo205 cells subcutaneously into female athymic nude mice (CD1 Nu/Nu), 8-10 weeks old. All of the mice were obtained from Charles River Laboratories (Raleigh, N.C.). Cells were harvested from subconfluent cultures using trypsin/EDTA. The cells were greater than 95% viable by […] exclusion. 2×10^6 cells in 0.2 ml were injected subcutaneously into the right flank of each mouse.
On day 14 after injection the tumors averaged 250 mm^3, and the mice were divided at random into four groups of 10 mice each. Group 1 received IgG1 at a dose of 10 μg and Fc fragment control at a dose of 2.8 μg and served as a negative control. Group 2 received Avastin™ at a dose of 10 μg and Fc fragment control at 2.8 μg. Group 3 received 2xCon4(C) at a dose of 2.8 μg and human IgG1 at a dose of 10 μg. […]
The experiment was performed “blind” in accordance with the Cancer Pharmacology Blinded Study Guidelines. Tumors were measured and body weights were determined twice each week. Tumors were measured with an electronic digital caliper. Tumor volumes were calculated as the length×width×height measurements and expressed in mm^3.
The data were analyzed by repeated measures ANOVA for tumor volumes over time using STATVIEW v. […]

Avastin™: recombinant humanized monoclonal antibody that binds directly to VEGF, sold by Genentech
reduction / inhibition of tumor growth compared to the control: 18%
